Experimental findings from PMC4113800 (Marine Drugs, 2014) are described below.

For data set [1], the system named is NCI-H460 cells. The data set can be described thus: [3H]-mitoxantrone accumulation and efflux in parental NCI-H460 cells. The data set is classed as cell-based, human. As to conditions: 11 at 10 or 30 μM, FTC 5.0 μM. An excerpt:
[…]. […] […]

The target in data set [2] is T1, BCRP (Homo sapiens, UniProt Q9UNQ0).
T1 sequence (Q9UNQ0 1-655): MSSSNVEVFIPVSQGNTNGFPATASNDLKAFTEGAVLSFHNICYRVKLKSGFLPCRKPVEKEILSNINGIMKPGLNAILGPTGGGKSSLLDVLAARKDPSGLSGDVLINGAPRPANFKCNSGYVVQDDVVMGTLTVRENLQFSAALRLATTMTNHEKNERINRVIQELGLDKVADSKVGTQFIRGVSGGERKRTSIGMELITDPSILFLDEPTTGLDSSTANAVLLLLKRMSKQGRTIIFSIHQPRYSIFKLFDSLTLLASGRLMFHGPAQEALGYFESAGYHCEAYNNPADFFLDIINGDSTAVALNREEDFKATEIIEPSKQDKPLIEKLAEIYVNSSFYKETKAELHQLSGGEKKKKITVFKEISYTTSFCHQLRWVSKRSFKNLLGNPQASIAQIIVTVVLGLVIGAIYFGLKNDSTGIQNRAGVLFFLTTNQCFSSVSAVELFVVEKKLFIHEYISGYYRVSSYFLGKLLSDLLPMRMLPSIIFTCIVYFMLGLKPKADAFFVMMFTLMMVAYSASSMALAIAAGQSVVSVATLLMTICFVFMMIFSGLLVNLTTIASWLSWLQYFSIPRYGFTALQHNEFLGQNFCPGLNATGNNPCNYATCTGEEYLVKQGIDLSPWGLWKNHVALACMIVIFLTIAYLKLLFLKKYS
Description: cell-based. Conditions: NCI-H460/MX20. The protocol:
Flow cytometry based assays were used to measure the ability of natural or synthetic compounds to inhibit P-gp, BCRP or MRP1 mediated accumulation and/or efflux of fluorescent reagents. […] For the calcein AM accumulation assays, cells were directly analyzed by flow cytometry.
Intracellular fluorescence intensity was measured on a BD FACSCanto™ II flow cytometer (Becton Dickinson, San Jose, CA, USA) and data were analyzed through FlowJo (Tree Star, Inc., Ashland, OR, USA). […] Mitoxantrone fluorescence was detected with a 638 nm […] laser and a 660/20 nm band-pass filter. At least 10,000 events were collected for all of the flow cytometry experiment. By increasing threshold value on forward scatter versus side scatter, debris was eliminated. Dead cells were excluded based on propidium iodide staining. Data are means ± SEM of at least three independent experiments performed in duplicate.

The target in data set [3] is T1, BCRP. As to conditions: FTC 5.0 μM; [3H]-mitoxantrone 0.10 μM; NCI-H460/MX20. As to the method: In the efflux study cells were incubated with 0.1 μM [^3H]-mitoxantrone as the same in the accumulation study.

For the compound `COc1ccc2c3c([nH]c2c1)[C@H](C=C(C)C)N1C(=O)[C@@H]2CCCN2C(=O)[C@@H]1C3` [FTC, Fumitremorgin C, reference compound], in data set [1], the “effect on intracellular [3H]-mitoxantrone levels, accumulation phase” value is “neither 11 (10 or 30 μM) nor FTC (5.0 μM) significantly changed intracellular [^3H]-mitoxantrone levels” and the “effect on intracellular [3H]-mitoxantrone levels, efflux phase” value is “Neither 11 nor FTC had a significant effect”. Also, the “FAR (fluorescence arbitrary ratio), mitoxantrone fluorescence” value in data set [2] (FTC 10 μM (positive control) vs PBS) worked out at 3.17 fold. Also, the “% FTC (inhibition of mitoxantrone efflux normalized to 10 μM FTC)” value in data set [2] (FTC 10 μM (positive control, set as 100%)) was found to be 100 % FTC. Besides, the “increase in [3H]-mitoxantrone accumulation” value in data set [3] stood at 2.2 fold.
